Patent publication US9113629B2, “4-amino-6-(4-substituted-phenyl)-picolinates and 6-amino-2-(4-substituted-phenyl)-pyrimidine-4-carboxylates and their use as herbicides” (DOW AGROSCIENCES LLC, priority 2013, dated 2015)
Read-outs that look alike come from different tables or passages of the source.

Assays:
[1] = test system: Key Grass and Sedge Weeds as well as Grass Crops; test: Post-emergent Test II herbicidal activity (Table 6); assay type: in vivo; settings: post-emergence, 336 h; for pest or weed control at 70 g/ha: 70 g ai/ha; for pest or weed control at 140 g/ha: 140 g ai/ha
Method in brief: (§1)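 Post-emergence foliar spray, 187 L/ha, track sprayer at 43 cm above canopy. Carrier: acetone/water/IPA/DMSO/Atplus 411F/Triton X-155. Plants at 1st–2nd true leaf; subirrigated afterwards; % injury scored visually at 14 d.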

[2] = test system: Key Broadleaf Weed and Crop Species; test: Post-emergent Test II herbicidal activity (Table 5); assay type: in vivo; settings: post-emergence, 336 h, 14 days after application; for pest or weed control at 70 g/ha: application rate 70 g ai/ha; for pest or weed control at 140 g/ha: application rate 140 g ai/ha
Method in brief: as §1

[3] = CYPES: yellow nutsedge (Cyperus esculentus), read-out: Visual Growth Reduction (%) 14 Days After Application, CYPES
[4] = DIGSA: crabgrass (Digitaria sanguinalis), read-out: Visual Growth Reduction (%) 14 Days After Application, DIGSA
[5] = ECHCG: barnyardgrass (Echinochloa crus-galli), read-out: Visual Growth Reduction (%) 14 Days After Application, ECHCG
[6] = ORYSA: rice (Oryza sativa), crop, read-out: Visual Growth Reduction (%) 14 Days After Application, ORYSA
[7] = SETFA: giant foxtail (Setaria faberi), read-out: Visual Growth Reduction (%) 14 Days After Application, SETFA
[8] = SORVU: grain sorghum (Sorghum vulgare), read-out: Visual Growth Reduction (%) 14 Days After Application, SORVU
[9] = TRZSS (wheat, Triticum aestivum), crop, read-out: Visual Growth Reduction (%) 14 Days After Application, TRZSS
[10] = ZEAMX: maize, corn (Zea mays), crop, read-out: Visual Growth Reduction (%) 14 Days After Application, ZEAMX
[11] = ABUTH: velvetleaf (Abutilon theophrasti), read-out: Visual Growth Reduction (%) 14 Days After Application, ABUTH
[12] = AMARE: redroot pigweed (Amaranthus retroflexus), read-out: Visual Growth Reduction (%) 14 Days After Application, AMARE
[13] = BRSNN: oilseed-rape, canola (Brassica napus), read-out: Visual Growth Reduction (%) 14 Days After Application, BRSNN
[14] = CHEAL: lambsquarters (Chenopodium album), read-out: Visual Growth Reduction (%) 14 Days After Application, CHEAL
[15] = EPHHL: wild poinsettia (Euphorbia heterophylla), read-out: Visual Growth Reduction (%) 14 Days After Application, EPHHL
[16] = HELAN: sunflower (Helianthus annuus), read-out: Visual Growth Reduction (%) 14 Days After Application, HELAN
[17] = VIOTR: wild pansy (Viola tricolor), read-out: Visual Growth Reduction (%) 14 Days After Application, VIOTR

Nc1cc(-c2ccc(Br)cc2)nc(C(=O)O)c1Cl [Compound 168]
pest or weed control at 70 g/ha [1, 3]: 95 to 100%
pest or weed control at 140 g/ha [1, 3]: 95 to 100%
pest or weed control at 70 g/ha [1, 4]: 75 to 84%
pest or weed control at 140 g/ha [1, 4]: 75 to 84%
pest or weed control at 70 g/ha [1, 5]: 95 to 100%
pest or weed control at 140 g/ha [1, 5]: 95 to 100%
pest or weed control at 70 g/ha [1, 6]: 0 to 29%
pest or weed control at 140 g/ha [1, 6]: 0 to 29%
pest or weed control at 70 g/ha [1, 7]: 95 to 100%
pest or weed control at 140 g/ha [1, 7]: 95 to 100%
pest or weed control at 70 g/ha [1, 8]: 95 to 100%
pest or weed control at 140 g/ha [1, 8]: 95 to 100%
pest or weed control at 70 g/ha [1, 9]: 60 to 74%
pest or weed control at 140 g/ha [1, 9]: 60 to 74%
pest or weed control at 70 g/ha [1, 10]: 95 to 100%
pest or weed control at 140 g/ha [1, 10]: 95 to 100%
pest or weed control at 70 g/ha [2, 11]: 95 to 100%
pest or weed control at 140 g/ha [2, 11]: 95 to 100%
pest or weed control at 70 g/ha [2, 12]: 95 to 100%
pest or weed control at 140 g/ha [2, 12]: 95 to 100%
pest or weed control at 70 g/ha [2, 13]: 95 to 100%
pest or weed control at 140 g/ha [2, 13]: 95 to 100%
pest or weed control at 70 g/ha [2, 14]: 95 to 100%
pest or weed control at 140 g/ha [2, 14]: 95 to 100%
pest or weed control at 70 g/ha [2, 15]: 95 to 100%
pest or weed control at 140 g/ha [2, 15]: 95 to 100%
pest or weed control at 70 g/ha [2, 16]: 95 to 100%
pest or weed control at 140 g/ha [2, 16]: 95 to 100%
pest or weed control at 70 g/ha [2, 17]: 0 to 29%
pest or weed control at 140 g/ha [2, 17]: 30 to 44%
